Assay results taken from patent US11035003B2, “TRPC6 involved in glomerulonephritis” (Duke University, priority 2005, dated 2021).
Changes are numbered by the printed parent chain.

Columns and labels:
WT TRPC6 = target: T1, WT TRPC6 (Homo sapiens, UniProt Q9Y210); experiment: Fura-2 single cell imaging of divalent cations in HEK 293 cells transfected with WT TRPC6; format: cell-based
T1 construct: expressed in transfected cells; host or cells: HEK 293
T1 sequence (Q9Y210 1-931): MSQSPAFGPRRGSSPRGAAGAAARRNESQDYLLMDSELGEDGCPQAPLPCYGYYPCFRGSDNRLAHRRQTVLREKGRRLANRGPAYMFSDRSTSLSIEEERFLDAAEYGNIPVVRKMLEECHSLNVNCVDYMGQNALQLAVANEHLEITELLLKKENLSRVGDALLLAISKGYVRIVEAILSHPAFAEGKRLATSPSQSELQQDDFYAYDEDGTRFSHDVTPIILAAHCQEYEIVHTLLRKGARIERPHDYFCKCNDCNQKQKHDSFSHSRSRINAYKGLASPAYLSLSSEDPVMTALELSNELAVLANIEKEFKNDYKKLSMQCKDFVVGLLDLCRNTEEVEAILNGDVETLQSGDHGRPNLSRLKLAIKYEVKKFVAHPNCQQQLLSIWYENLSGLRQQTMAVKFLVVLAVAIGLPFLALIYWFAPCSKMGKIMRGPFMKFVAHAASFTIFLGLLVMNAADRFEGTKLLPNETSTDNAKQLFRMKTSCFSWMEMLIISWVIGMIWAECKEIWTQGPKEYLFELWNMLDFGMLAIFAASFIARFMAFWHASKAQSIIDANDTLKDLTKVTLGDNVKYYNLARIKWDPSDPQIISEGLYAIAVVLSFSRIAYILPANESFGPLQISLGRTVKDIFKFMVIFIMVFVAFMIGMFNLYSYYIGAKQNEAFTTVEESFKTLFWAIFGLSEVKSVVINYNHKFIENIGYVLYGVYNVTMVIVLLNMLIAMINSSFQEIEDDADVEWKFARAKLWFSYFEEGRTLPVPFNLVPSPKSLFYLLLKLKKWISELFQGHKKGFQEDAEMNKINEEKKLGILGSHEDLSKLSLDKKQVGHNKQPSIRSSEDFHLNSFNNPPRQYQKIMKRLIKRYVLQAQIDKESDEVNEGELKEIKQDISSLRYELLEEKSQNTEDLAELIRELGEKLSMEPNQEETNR
Text: (§1) To determine the effect of the P112Q mutation on TRPC6 function, we studied HEK 293 cells (human kidney cells) transfected with mutant (TRPC6^P112Q) or wild-type (WT) TRPC6 (14). The WT TRPC6 was cloned from a human kidney cDNA library. […] Diacylglycerol (DAG) is a potent activator of TRPC6 (15). We therefore measured the intracellular calcium concentration ([Ca^+2]i) using Fura fluorescence in HEK 293 cells expressing either the WT or TRPC6^P112Q after exposure to the DAG analogue OAG (1-oleoyl-2-acetyl-sn-glycerol). OAG perfusion increased late Ca^+2 transients in cells transfected with WT TRPC6 as expected (FIG. 3A and FIG. 7).
(§2) Angiotensin II acting through its AT1 receptor plays a critical role in the generation of proteinuria and progression of kidney injury in a number of kidney diseases including FSGS (16). AT1 receptors, coupled to heterotrimeric G nucleotide-binding proteins, activate phospholipase C-beta isoforms that hydrolyze phosphatidylinositol 4,5-bisphosphate (PIP2). This triggers production of inositol 1,4,5-trisphosphate (InsP3) and diacylglycerol (DAG) releases internal calcium stores and activates Ca^+2 entry, respectively (17). We examined whether the P112Q mutation would affect angiotensin II-dependent (i.e., receptor-operated) calcium signaling. HEK 293 cells were co-transfected with the AT1 angiotensin receptor (AT-YFP) and either WT TRPC6 or TRPC6^P112Q. [Ca^+2]i changes were measured after exposure to angiotensin II (FIG. 3B and FIG. 8); similar to the OAG experiments, the peak angiotensin II-stimulated [Ca^+2]i was higher in cells expressing the mutant protein compared with WT controls ([Ca^2+]i TRPC6^P112Q=640±66 nM vs. [Ca^2+]i WT TRPC6=357±46 nM; p<0.05). To establish that the P112Q mutation is not isolated to TRPC6 channels, we introduced the analogous mutation into the TRPC3 channel.
(§3) HEK 293 cells were plated on glass bottom plates at near confluence. After 24 hours, the cells were transfected with plasmids in the presence of lipofectamine 2000 (Invitrogen). Here 3 μg of TRPC6 plasmid (WT or mutant) and 1 μg of ATR-YFP plasmid were incubated for 4 hours in Optimem 2000 media (Gibco) and then changed to 10% FBS/DMEM media. For biotinylation experiments, 24 hours after transfection with TRPC6-V5 and TRPC6^P112Q-V5 constructs, cells were washed with ice cold PBS and incubated with sulfo-NHS-SS-Biotin (2 mg/ml) (Pierce) for 30-min at 4° C. After 3 washes with PBS with 10 mM glycine, cells were incubated with RIPA lysis buffer for 30-min at 4° C. Lysates were passed through a 20 G and then 25 G needle for 25 passes. Samples were then collected by centrifuging at 20K G for 15-min at 4° C. Supernatants were then incubated overnight with streptavidin agaraose beads (Pierce), washed 3 times and then heated to 37° C. […]

TRPC6^P112Q = target: T2, TRPC6^P112Q (Homo sapiens, UniProt Q9Y210, P112Q); experiment: Fura-2 single cell imaging of divalent cations in HEK 293 cells transfected with TRPC6^P112Q; format: cell-based
T2 construct: expressed in transfected cells; host or cells: HEK 293
T2 sequence (Q9Y210 1-931 P112Q): T1 sequence (Q9Y210 1-931) with P112Q
Text: as §1, §2, §3

Compound	Peak intracellular calcium concentration [Ca2+]i after OAG perfusion (WT TRPC6; HEK 293 cells transfected with WT TRPC6, 100 μM OAG, Fura fluorescence) [nM]	OAG-stimulated barium transients, ratio (WT TRPC6; HEK293 cells transfected with WT TRPC6, Fura-2, barium as surrogate for calcium)	OAG-stimulated barium transients, 4340/380 ratio (TRPC6^P112Q; HEK293 cells transfected with TRPC6P112Q, Fura-2, barium as surrogate for calcium)	Peak intracellular calcium concentration [Ca2+]i after OAG perfusion (TRPC6^P112Q; HEK 293 cells transfected with TRPC6^P112Q, 100 μM OAG, Fura fluorescence) [nM]	Peak angiotensin II-stimulated [Ca2+]i (WT TRPC6; HEK 293 cells co-transfected with AT1 receptor (AT-YFP) and WT TRPC6, angiotensin II 1 μM) [nM]	Duration of angiotensin II-induced barium signal (WT TRPC6; HEK 293 cells co-transfected with AT1 receptor and WT TRPC6) [s]	Peak angiotensin II-stimulated [Ca2+]i (TRPC6^P112Q; HEK 293 cells co-transfected with AT1 receptor (AT-YFP) and TRPC6^P112Q, angiotensin II 1 μM) [nM]	Duration of angiotensin II-induced barium signal (TRPC6^P112Q; HEK 293 cells co-transfected with AT1 receptor and TRPC6^P112Q) [s]
CCCCCCCC/C=C\CCCCCCCC(=O)OC[C@H](CO)OC(C)=O [OAG, 1-oleoyl-2-acetyl-sn-glycerol]	106 ± 15	0.49±0.18	1.30±0.7	181 ± 25				
angiotensin II: ligand acting through its AT1 receptor, used to stimulate receptor-operated calcium signaling (DRVYIHPF; Angiotensin-2; UniProt P01019 25-32, looked up)					357 ± 46	271 ± 121	640 ± 66	1054 ± 282
